The source of these data is patent US20250312311A1, “Low Dose Fipronil Deer Feed” (priority 2024, published 2025).

The structures appear in SMILES notation. Where only a bound is given, the exact number is not on record here.

Test [1] relates to Amblyomma americanum. Kind of test: Pen study: FDF efficacy against Amblyomma americanum parasitizing white-tailed deer (tick capsules, 8-day post-attachment). As to conditions: Cp 13.5 ppb; the tick was A. americanum. The format is in vivo.
Test [2] has as its system I. scapularis larvae. As to conditions: larvae parasitizing P. leucopus; Poché et al. 2021; cited from earlier work.
In test [3] the test system is I. scapularis larvae. As to conditions: larvae parasitizing Peromyscus maniculatus; Pelletier et al. 2020; cited from earlier work.

For `N#Cc1nn(-c2c(Cl)cc(C(F)(F)F)cc2Cl)c(N)c1S(=O)(=O)C(F)(F)F` [fipronil sulfone], the “live female ticks collected in total from a deer having Cp at 13.5 ppb” value in test [1] is “one”. The “Cp determined to control 100% I. scapularis larvae” value in test [2] was ≥ 8.8 ppb.
Take `Cc1cc(C2=NOC(c3cc(Cl)cc(Cl)c3)(C(F)(F)F)C2)ccc1C(=O)NCC(=O)NCC(F)(F)F` (stereo not shown) [fluralaner]: in test [3], the “concentration in plasma required to control 94% I. scapularis larvae” value is given as 4000 ppb and the “concentration in plasma required to control 97% I. scapularis larvae” value is 13000 ppb.
